This is an account of results in patent US9828365B2, “Fused tetracyclic heterocyclic compounds and methods of use thereof for the treatment of viral diseases” (MERCK SHARP & DOHME CORP., priority 2013, dated 2017).

Assay [1] has as its system HCV replicon genotype 1A. Description: Cell-based HCV replicon assay, 1A. The note with it: replicon cells, 3 days, replicon RNA by real-time PCR. As to the method: (§1) To measure cell-based anti-HCV activity of selected compounds of the present invention two complimentary assays were employed. In the first assay, replicon cells were seeded at 2000 cells/well in 384-well flat bottom tissue culture treated clear bottom plate (Corning 3707) in the presence of the test compound. Various concentrations of test compound, typically in 10 serial dilutions, were added to the assay mixture, with the starting concentration ranging from 333.3 nM to 1.667 nM. The final concentration of DMSO was 0.5%. Fetal bovine serum was 5%, in the assay media. Cells were harvested on day 3 by removing media and washing the cells with a suitable wash buffer. The cells were lysed with the addition of 1× Qiagen lysis buffer (Cat #1062731). The replicon RNA level was measured using real time PCR (TaqMan® EZ RT-PCR, Applied Biosystems 403028) with the following primers and probes: […]
(§2) Cyclophilin RNA was used as endogenous control and was amplified in the same reaction as NS5B (multiplex PCR). The real-time RT-PCR reactions were run on ABI PRISM 7900HT Sequence Detection System using the following program: 50° C. for 2 minutes, 60° C. for 30 minutes, 95° C. for 5 minutes, 40 cycles of 94° C. for 20 sec, 55° C. for 1 minute.
(§3) The amount of HCV replicon RNA per cell is quantified using a linear regression curve for a known nanogram (ng) amount of HCV replicon total RNA. This is established by plotting the Cycle Threshold values (Ct) from the Neo probe and primer set versus the log (ng) for each HCV replicon total RNA standard. The amount of HCV RNA for each replicon sample is calculated by taking the sample's Ct value, minus the line intercept, divided by the slope of the line. Similarly, the amount of Cyclophilin mRNA per cell is also quantified using a linear regression curve for a known nanogram (ng) amount of HCV replicon total RNA. Again, this is established by plotting the Cycle Threshold values (Ct) from the Cyclophilin probe and primer set versus the log (ng) for each HCV replicon total RNA standard.
(§4) In the alternate assay, 1000 cells were seeded per well in a 384-well collagen coated black plate from Greiner bio-one (Cat #781946) in 5% FBS. Inhibitors of this invention were added at 24 hours post-seeding, and the plates were incubated for 3 days. Cells were subsequently lysed with Qiagen lysis buffer (Cat #1062731) to extract the RNA. HCV replicon RNA level was measured by real-time PCR using the RNA-to-CT kit from Applied Biosystem (Cat #4392656) and genotype-specific primers and probes. The amplicon was located within NS5B. The sequence of the PCR primers were as follows: 5B.2F, ATGGACAGGCGCCCTGA (SEQ. ID NO. 7); 5B.2R, […] (SEQ. ID NO. 8); the probe sequence was FAM-labeled CACGCCATGCGCTGCGG (SEQ. ID NO. 9). To detect genotype 1A the primer 1A F, TGCGGAACCGGTGAGTACA (SEQ ID NO:10) and 1A R, […] (SEQ ID NO: 11) were used; the probe sequence was FAM-[…] (SEQ ID NO:12).
(§5) The real-time RT-PCR reactions were run on ABI PRISM 7900HT or Viia7 Sequence Detection System using the following program: 48° C. for 30 minutes, 95° C. for 10 minutes, 40 cycles of 95° C. for 15 sec, 60° C. for 1 minute. The 50% effective concentration (EC50) was the drug concentration necessary to achieve an increase in the cycle threshold (CT) of 1 over the projected baseline CT. The EC90 was the drug concentration necessary to achieve an increase in CT of 3.2 over the projected baseline CT.
(Replicon systems follow genome replication, usually without infectious particles.)

For assay [2], the system named is HCV replicon 1A Y93H. Description: Cell-based HCV replicon assay, 1A Y93H. As to the method: as §1, §2, §3, §4, §5
The subject of assay [3] is HCV replicon 1B. Description: Cell-based HCV replicon assay, 1B. The note with it: replicon cells, 3 days, replicon RNA by real-time PCR. Here is the method:
as §1, §2, §3, §4, §5

For assay [4], the system named is HCV replicon 2B. Description: Cell-based HCV replicon assay, 2B. The note with it: replicon cells, 3 days, replicon RNA by real-time PCR. Here is the method:
as §1, §2, §3, §4, §5

In assay [5] the test system is HCV replicon 3A. Kind of assay: Cell-based HCV replicon assay, 3A. The note with it: replicon cells, 3 days, replicon RNA by real-time PCR. As to the method: as §1, §2, §3, §4, §5
[6] abbreviates: read-out: 1A Y93H IC50, replicon cells, 3 days, replicon RNA by real-time PCR.
Setting [7] is: Hepatitis C virus, 72 h, read-out: 1A Y93H IC50 (nM), replicon cells, 3 days, replicon RNA by real-time PCR.

Like-named read-outs stand apart in the source and are kept apart here.

As a reminder, the IC50 is the concentration needed to halve the response being measured. In the case of `COC(=O)N[C@H](C(=O)N1CCC[C@H]1c1ncc(-c2ccc3c(c2)OC(c2ccccc2)C2=C3COc3cc(-c4cnc([C@@H]5CCCN5C(=O)[C@@H](NC(=O)OC)C(C)C)[nH]4)ccc32)[nH]1)C(C)C` (single isomer, unassigned) [Compound 8], the concentration for half-maximal inhibition (IC50) in assay [1] is 0.0337 nM; in assay [2] (setting [6]), 20.4 nM; in assay [3], 0.021 nM; in assay [4], 6.65 nM; in assay [5], 0.969 nM.

As for `COC(=O)N[C@H](C(=O)N1CCC[C@H]1c1ncc(-c2ccc3c(c2)OC(c2ccccc2)C2=C3COc3cc(-c4cnc([C@@H]5CCCN5C(=O)[C@@H](NC(=O)OC)C(C)C)[nH]4)ccc32)[nH]1)C(C)C` (single isomer, unassigned) [Compound 9], the IC50 was 0.0099 nM in assay [1]; 3.94 nM in assay [2] (setting [6]); 0.0073 nM in assay [3]; 1.9 nM in assay [4]; 0.172 nM in assay [5].

Take `COC(=O)N[C@H](C(=O)N1CCC[C@H]1c1ncc(-c2ccc3c(c2)OC(c2cccc(OC)c2)C2=C3COc3cc(-c4cnc([C@@H]5CCCN5C(=O)[C@@H](NC(=O)OC)C(C)C)[nH]4)ccc32)[nH]1)C(C)C` (single isomer, unassigned) [Compound 10]: the half-inhibitory concentration (IC50) in assay [1] was 0.0035 nM; in assay [2] (setting [7]), 2.94 nM; in assay [4] (Hepatitis C virus, 72 h) it was 2.72 nM; in assay [5] it was 0.233 nM.

For the compound `COC(=O)N[C@H](C(=O)N1CCC[C@H]1c1ncc(-c2ccc3c(c2)OC(c2cccc(OC)c2)C2=C3COc3cc(-c4cnc([C@@H]5CCCN5C(=O)[C@@H](NC(=O)OC)C(C)C)[nH]4)ccc32)[nH]1)C(C)C` (single isomer, unassigned) [Compound 11], the half-inhibitory concentration (IC50) in assay [1] turned out to be 0.01 nM; in assay [3] (Hepatitis C virus, 72 h) it was 0.006 nM.

As for `COC(=O)N[C@H](C(=O)N1CCC[C@H]1c1ncc(-c2ccc3c(c2)OC(c2cccc(OC)c2)C2=C3COc3cc(-c4cnc([C@@H]5CCCN5C(=O)[C@@H](NC(=O)OC)C(C)C)[nH]4)ccc32)[nH]1)C(C)C` (single isomer, unassigned) [Compound 12], the IC50 in assay [1] stood at 0.0251 nM; in assay [2] (setting [6]), 2.44 nM; in assay [5], 1.82 nM.

For the compound `COC(=O)N[C@H](C(=O)N1CCC[C@H]1c1ncc(-c2ccc3c(c2)OC(C)C2=C3COc3cc(-c4cnc([C@@H]5CCCN5C(=O)[C@@H](NC(=O)OC)C(C)C)[nH]4)ccc32)[nH]1)C(C)C` (single isomer, unassigned) [Compound 13], the IC50 in assay [1] stood at 0.0344 nM; in assay [2] (setting [6]), 23.8 nM; in assay [4], 12 nM; in assay [5] (Hepatitis C virus, 72 h), 1 nM.

Turning to `COC(=O)N[C@H](C(=O)N1CCC[C@H]1c1ncc(-c2ccc3c(c2)OC(C)C2=C3COc3cc(-c4cnc([C@@H]5CCCN5C(=O)[C@@H](NC(=O)OC)C(C)C)[nH]4)ccc32)[nH]1)C(C)C` (single isomer, unassigned) [Compound 14], the half-maximal inhibitory concentration (IC50) in assay [1] came out at 0.0122 nM; in assay [2] (setting [6]) it was 31.8 nM; in assay [4], 24.5 nM.

With `COC(=O)N[C@H](C(=O)N1CCC[C@H]1c1ncc(-c2ccc3c(c2)OC(C)C2=C3COc3cc(-c4cnc([C@@H]5CCCN5C(=O)[C@@H](NC(=O)OC)C(C)C)[nH]4)ccc32)[nH]1)C(C)C` (single isomer, unassigned) [Compound 15], the IC50 in assay [1] amounted to 0.0229 nM; in assay [2] (setting [6]), 127 nM; in assay [4], 15.3 nM.

For the compound `COC(=O)N[C@H](C(=O)N1CCC[C@H]1c1ncc(-c2ccc3c(c2)OC(C2CC2)C2=C3COc3cc(-c4cnc([C@@H]5CCCN5C(=O)[C@@H](NC(=O)OC)C(C)C)[nH]4)ccc32)[nH]1)C(C)C` (single isomer, unassigned) [Compound 16], the half-inhibitory concentration (IC50) was 0.0118 nM in assay [1] (Hepatitis C virus, 72 h); 6.31 nM in assay [2] (setting [6]); 0.621 nM in assay [4] (Hepatitis C virus, 72 h); 3.74 nM in assay [5] (Hepatitis C virus, 72 h).

With `COC(=O)N[C@H](C(=O)N1CCC[C@H]1c1ncc(-c2ccc3c(c2)OC(C2CC2)C2=C3COc3cc(-c4cnc([C@@H]5CCCN5C(=O)[C@@H](NC(=O)OC)C(C)C)[nH]4)ccc32)[nH]1)C(C)C` (single isomer, unassigned) [Compound 17], the IC50 was found to be 0.0115 nM in assay [1] and 57.9 nM in assay [2] (setting [6]).

As for `COC(=O)N[C@H](C(=O)N1CCC[C@H]1c1ncc(-c2ccc3c(c2)OC(C2CC2)C2=C3COc3cc(-c4cnc([C@@H]5CCCN5C(=O)[C@@H](NC(=O)OC)C(C)C)[nH]4)ccc32)[nH]1)C(C)C` (single isomer, unassigned) [Compound 18], the half-inhibitory concentration (IC50) was found to be 0.0081 nM in assay [1] and 14.3 nM in assay [2] (setting [6]).

On to `COC(=O)N[C@H](C(=O)N1C[C@H](F)C[C@H]1c1ncc(-c2ccc3c(c2)OC(C2CC2)C2=C3COc3cc(-c4cnc([C@@H]5C[C@@H](F)CN5C(=O)[C@@H](NC(=O)OC)C(C)C)[nH]4)ccc32)[nH]1)C(C)C` (single isomer, unassigned) [Compound 19], for which the IC50 in assay [1] came out at 0.0192 nM; in assay [2] (setting [7]), 2.31 nM.

Regarding `COC(=O)N[C@H](C(=O)N1C[C@H](F)C[C@H]1c1ncc(-c2ccc3c(c2)OC(C2CC2)C2=C3COc3cc(-c4cnc([C@@H]5C[C@@H](F)CN5C(=O)[C@@H](NC(=O)OC)C(C)C)[nH]4)ccc32)[nH]1)C(C)C` (single isomer, unassigned) [Compound 20], the IC50 in assay [1] was 0.0866 nM; in assay [2] (setting [6]) it was 1.97 nM.

On to `COC(=O)N[C@H](C(=O)N1C[C@H](F)C[C@H]1c1ncc(-c2ccc3c(c2)OC(C2CC2)C2=C3COc3cc(-c4cnc([C@@H]5C[C@@H](F)CN5C(=O)[C@@H](NC(=O)OC)C(C)C)[nH]4)ccc32)[nH]1)C(C)C` (single isomer, unassigned) [Compound 21], for which the IC50 in assay [1] is 0.0156 nM; in assay [2] (setting [6]) it was 2.17 nM.

Regarding `COC(=O)N[C@H](C(=O)N1C[C@H](F)C[C@H]1c1ncc(-c2ccc3c(c2)OCc2c-3c(=O)oc3cc(-c4cnc([C@@H]5C[C@@H](F)CN5C(=O)[C@@H](NC(=O)OC)C(C)C)[nH]4)ccc23)[nH]1)C(C)C` [Compound 5], the IC50 in assay [1] (Hepatitis C virus, 72 h) amounted to 0.0153 nM; in assay [2] (setting [7]) it was 0.337 nM; in assay [3] (Hepatitis C virus, 72 h) it was 0.0044 nM; in assay [4] (Hepatitis C virus, 72 h) it was 100 nM; in assay [5] (Hepatitis C virus, 72 h) it was 1 nM.

With `CC(C)(C)OC(=O)N1C[C@H](F)C[C@H]1c1ncc(-c2ccc3c(c2)OCc2c-3c(=O)oc3cc(-c4cnc([C@@H]5C[C@@H](F)CN5C(=O)OC(C)(C)C)[nH]4)ccc23)[nH]1` [Compound 6], the IC50 in assay [1] (Hepatitis C virus, 72 h) came out at 975 nM; in assay [2] (setting [7]), 3080 nM.

Take `COC(=O)N[C@H](C(=O)N1CCC[C@H]1c1ncc(-c2ccc3c(c2)OC(c2ccccc2)C2=C3COc3cc(-c4cnc([C@@H]5CCCN5C(=O)[C@@H](NC(=O)OC)C(C)C)[nH]4)ccc32)[nH]1)C(C)C` (some centres unmarked) [Compound 7]: the half-maximal inhibitory concentration (IC50) came out at 0.0076 nM in assay [1] (Hepatitis C virus, 72 h); 4.29 nM in assay [2] (setting [7]); 0.002 nM in assay [3] (Hepatitis C virus, 72 h); 1 nM in assay [4] (Hepatitis C virus, 72 h); 0.062 nM in assay [5] (Hepatitis C virus, 72 h).

Consider `COC(=O)N[C@H](C(=O)N1CCC[C@H]1c1ncc(-c2ccc3c(c2)OCC2=C3COc3cc(-c4cnc([C@@H]5C[C@H]6C[C@H]6N5C(=O)[C@@H](NC(=O)OC)C(C)C)[nH]4)ccc32)[nH]1)C(C)C` [Compound 22], for which the IC50 in assay [1] (Hepatitis C virus, 72 h) is 0.0023 nM; in assay [2] (setting [7]) it was 2.01 nM; in assay [4] (Hepatitis C virus, 72 h) it was 16 nM; in assay [5] (Hepatitis C virus, 72 h), 2.02 nM.
